Test results: ChEMBL document CHEMBL4422644, “Synthesis and evaluation of α-aminoacyl amides as antitubercular agents effective on drug resistant tuberculosis” (Eur J Med Chem, 2019)
pIC50: −log10 of the molar value. Values after ≈ are worked out from the molar mass of the structure shown.

Legend:
[1] = test system: Klebsiella pneumoniae; experiment: Antibacterial activity against Klebsiella pneumoniae ATCC BAA-1705 after 24 hrs; assay type: functional; settings: ATCC BAA-1705, 24 h
[2] = test system: Mycolicibacterium fortuitum; experiment: Antibacterial activity against Mycobacterium fortuitum after 7 days by alamar blue assay; assay type: functional; settings: 168 h
[3] = test system: HepG2; experiment: Cytotoxicity against human HepG2 cells after 24 hrs by MTT assay; assay type: functional, cell-based; settings: HepG2, 24 h
[4] = Selectivity index, ratio of IC50 for HEK cells to MIC for Mycobacterium tuberculosis H37Rv; assay type: toxicity; settings: human, read-out: Selectivity Index
[5] = Cytotoxicity against […] B16 cells after 24 hrs by MTT assay; assay type: functional, cell-based; settings: B16, 24 h
[6] = test system: Pseudomonas aeruginosa; experiment: Antibacterial activity against Pseudomonas aeruginosa ATCC 27853 after 24 hrs; assay type: functional; settings: ATCC 27853, 24 h
[7] = test system: Staphylococcus aureus; experiment: Antibacterial activity against Staphylococcus aureus ATCC 29213 after 24 hrs; assay type: functional; settings: ATCC 29213, 24 h
[8] = Cytotoxicity against HEK cells after 24 hrs by MTT assay; assay type: cell-based; settings: Homo sapiens, HEK293, 24 h
[9] = test system: HeLa; experiment: Cytotoxicity against human HeLa cells after 24 hrs by MTT assay; assay type: functional, cell-based
[10] = test system: DU-145; experiment: Cytotoxicity against human DU145 cells after 24 hrs by MTT assay; assay type: functional, cell-based; settings: DU-145, 24 h
[11] = test system: Escherichia coli; experiment: Antibacterial activity against Escherichia coli ATCC 25922 after 24 hrs; assay type: functional; settings: ATCC 25922, 24 h
[12] = test system: Acinetobacter baumannii; experiment: Antibacterial activity against Acinetobacter baumannii ATCC BAA-1605 after 24 hrs; assay type: functional; settings: ATCC BAA-1605, 24 h
[13] = test system: Mycobacteroides abscessus; experiment: Antibacterial activity against Mycobacterium abscessus after 7 days by alamar blue assay; assay type: functional; settings: 168 h
[14] = test system: MCF7; experiment: Cytotoxicity against human MCF7 cells after 24 hrs by MTT assay; assay type: functional, cell-based; settings: MCF7, 24 h
[15] = test system: Mycobacteroides chelonae; experiment: Antibacterial activity against Mycobacterium chelonae after 7 days by alamar blue assay; assay type: functional; settings: 168 h
[16] = test system: Mycobacterium tuberculosis; experiment: Antitubercular activity against Mycobacterium tuberculosis H37Rv after 7 days by alamar blue assay; assay type: functional; settings: 168 h
[17] = test system: CHO-K1; experiment: Cytotoxicity against CHOK1 cells after 24 hrs by MTT assay; assay type: cell-based; settings: Cricetulus griseus, CHO-K1, 24 h
[18] = test system: A549; experiment: Cytotoxicity against human A549 cells after 24 hrs by MTT assay; assay type: functional, cell-based; settings: A549, 24 h
[19] = Selectivity index, ratio of IC50 for CHOK1 cells to MIC for Mycobacterium tuberculosis H37Rv; assay type: toxicity; settings: hamster, read-out: Selectivity Index
[20] = test system: Mycobacterium tuberculosis; experiment: Antitubercular activity against Mycobacterium tuberculosis H37Rv after 6 days by alamar blue assay; assay type: functional; settings: 144 h
[21] = test system: Mycobacterium tuberculosis; experiment: Antitubercular activity against Mycobacterium tuberculosis H37Rv assessed as microbial killing at 4 fold MIC incubated for 6 days by MPN assay; assay type: functional, organism-based

| SMILES | MIC [1] [µM] | MIC [2] [µM] | pIC50 [3] | selectivity ratio [4] | pIC50 [5] | MIC [6] [µM] | MIC [7] [µM] | pIC50 [8] | pIC50 [9] | pIC50 [10] | MIC [11] [µM] | MIC [12] [µM] | MIC [13] [µM] | pIC50 [14] | MIC [15] [µM] | MIC [16] [µM] | pIC50 [17] | pIC50 [18] | selectivity ratio [19] | also measured |
| --- | --- | --- | --- | --- | --- | --- | --- | --- | --- | --- | --- | --- | --- | --- | --- | --- | --- | --- | --- | --- |
| Cc1nc(C)c(C(=O)N(c2cccc(C)c2C)C(C(=O)NC2CCCCC2)c2ccncc2)s1 (centres undefined) | > 50 | > 50 | 4.84 | 31.4 | 4.94 | > 50 | > 50 | 4.31 | 4.98 | 4.96 | > 50 | > 50 | > 50 | 5.35 | > 50 | 1.56 (≈ 0.744 µg/mL) | 4.14 | 5.18 | 45.5 | – |
| Cc1ccc(N(C(=O)c2sc(C)nc2C)C(C(=O)NC2CCCCC2)c2cccnc2)cc1 (centres undefined) | > 50 | > 50 | 5.17 | 18.9 | 4.75 | > 50 | > 50 | 4.23 | 5.04 | 4.78 | > 50 | > 50 | > 50 | 5.22 | > 50 | 3.12 (≈ 1.44 µg/mL) | 3.79 | 4.93 | 51.6 | – |
| Cc1nc(C)c(C(=O)N(c2cccc(C)c2C)C(C(=O)NC2CCCCC2)c2ccccc2)s1 (centres undefined) | > 50 | > 50 | 5.03 | – | 4.81 | > 50 | > 50 | 4.46 | 5.08 | 4.90 | > 50 | > 50 | > 50 | 4.96 | > 50 | 12.5 (≈ 5.95 µg/mL) | 4.56 | 4.90 | 2.1 | MIC [20]: 12.5 µM (≈ 5.95 µg/mL) |
| Cc1nc(C)c(C(=O)N(c2cccc(C)c2C)C(C(=O)NC2CCCCC2)c2cccnc2)s1 (centres undefined) | > 50 | > 50 | 4.85 | 104 | 4.87 | > 50 | > 50 | 4.09 | 5.02 | 5.00 | > 50 | > 50 | > 50 | 5.19 | > 50 | 0.78 (≈ 0.372 µg/mL) | 3.97 | 5.06 | 136 | Activity [21]: Dose-dependent effect |
| Cc1cccc(N(C(=O)c2c(C)noc2C)C(C(=O)NC2CCCCC2)c2ccccc2)c1C (centres undefined) | > 50 | > 50 | 4.98 | 31.3 | 4.56 | > 50 | > 50 | 4.01 | 5.06 | 5.00 | > 50 | > 50 | > 50 | 5.52 | > 50 | 3.12 (≈ 1.43 µg/mL) | 4.32 | 5.07 | 15.1 | – |
| Cc1ccc(N(C(=O)c2sc(C)nc2C)C(C(=O)NC2CCCCC2)c2ccccc2)cc1 (centres undefined) | > 50 | > 50 | 4.93 | – | 4.86 | > 50 | > 50 | 4.43 | 4.97 | 4.85 | > 50 | > 50 | > 50 | 5.43 | > 50 | 1.56 (≈ 0.72 µg/mL) | 4.75 | 5.83 | 10.9 | – |
